According to patent US9119805B2, “Therapy and prevention of problem drinking” (THE UNIVERSITY OF SYDNEY, priority 2009, dated 2015):

What was measured:
[1] = system: alcohol-dependent adults and non-dependent problem drinkers; experiment: Human Study 3: chronic (4 week) intranasal oxytocin, double-blind placebo-controlled; format: in vivo
Procedure: In a third clinical study in humans, a double-blind, randomized and placebo-controlled study is conducted to determine the effect(s) of intranasal oxytocin therapy on alcohol self-administration in a population of alcohol-dependent adults and in a population of non-dependent problem drinkers. This study determines safety and efficacy of chronic intranasal oxytocin therapy for problem drinking.
At least 30 male and female alcohol-dependent adults and non-dependent problem drinkers are recruited according to the protocols described in the preceding examples hereof, to participate in a trial investigating chronic (4 week) intranasal oxytocin therapy for problem drinking e.g., alcohol-dependent subjects having a current diagnosis of alcohol dependence according to the Diagnostic and Statistical Manual of Mental Disorders, Fourth Edition (DSM-IV) as determined by the Structured Clinical Interview for the DSM-IV (SCID-IV), and non-dependent subjects scoring higher than 8 on AUDIT. Exclusion criteria are as indicated in the preceding examples.
(§1) All subjects are tested for baseline SCID-IV, AUDIT, PDQ, 90-day TLFB, DASS-21, PANAS, AUQ, FTND, body mass index (BMI), urine toxicology, bloods for baseline oxytocin and cortisol, liver function testing, heart rate (HR), blood pressure (BP), and ECG, and females are pregnancy-tested and their menstrual cycles determined, as described herein above for Study 2. Neuropsychological evaluations e.g., according to CANTAB are also performed. Additionally, subjects are subjected to attention bias assessment task testing, wherein attention biases to alcohol-related cues are determined using e.g., stroop and dot-probe methodology. Subjects also participate in a reward learning computer task, to assess motivation for their alcohol consumption. Based on their test results, subjects are selected for recruitment in the study.
Recruited subjects are administered placebo or oxytocin intranasally (80 IU per day: 40 IU at 9:00 am and 40 IU at 9:00 pm) over a period of 28 days, following completion of baseline measurements. Subjects are instructed on self-administration procedures and given an initial 14 day supply of medication. Participants attend a mid-point assessment where they will receive the remaining 14 day supply of medication. Drug administration commences on the evening of the day of the clinical and medical interview and ceases on a morning 28 days later, after 56 doses have been administered. Subjects are randomized to oxytocin-receiving or placebo-receiving groups, and the groups are stratified according to gender, age, and drinking behavior.
Recruited subjects are also fitted with an actigraphy watch and complete a sleep diary over the following two week period. The actigraphy watches provide information on sleep/wake cycles and light exposure which play an important role in the psychopathology of alcohol misuse. Participants also complete daily self-tests of drinking behavior (AUQ), mood (PANAS), and report on adverse effects of medication. All participants are contacted weekly beginning after 3 days from the commencement of therapy, to determine compliance and adverse events.
Subjects returning to the BMRI on the afternoon of the 14th day of testing are evaluated i.e., the mid-point assessment. Bloods are taken for analysis of plasma oxytocin and cortisol levels as well as basic pathology including liver function and compared to baseline levels before commencement of drug dosing. A urine toxicology test and alcohol breathalyzer test are also performed, to determine whether subjects have been alcohol-free and drug-free at the time of testing. Subjects are tested according to DASS-21, PANAS, 14-day TLFB, and AUQ, and neuropsychological evaluations e.g., according to CANTAB are performed. Changes in mood, drinking behavior and neuropsychology are evaluated for both groups by comparison with baseline evaluations. […]

[2] = system: alcohol-dependent adults and non-dependent problem drinkers; experiment: Human Study 2: intranasal oxytocin, alcohol self-administration; format: in vivo; details: versus placebo
Procedure: In a second clinical study in humans, the effect(s) of intranasal oxytocin therapy on alcohol self-administration are determined in a population of alcohol-dependent adults and in a population of non-dependent problem drinkers.
At least forty male and female adults are recruited from the community to the Brain and Mind Research Institute (BMRI) to participate in a laboratory based investigation looking at the impact of oxytocin on alcohol craving. Participants have a current diagnosis of alcohol dependence according to the Diagnostic and Statistical Manual of Mental Disorders, Fourth Edition (DSM-IV) as determined by the Structured Clinical Interview for the DSM-IV (SCID-IV) or are non-dependent subjects scoring higher than 8 on AUDIT. Male and female participants are chronic hazardous drinkers consuming more than 20 (females) or 25 (males) standard drinks per week (i.e., females: more than 200 g alcohol per week; males more than 250 g alcohol per week), respectively, and have not been abstinent more than 3 days per week in the 30 days preceding commencement of the trial as determined by AUDIT.
as §1, with “FTND,” for “FTND, body mass index (BMI),”, “plasma” for “bloods for baseline”, “evaluations are also performed” for “evaluations”, “CANTAB.” for “CANTAB are also performed.”
Recruited subjects are administered placebo or oxytocin intranasally (80 IU per day: 40 IU at 9:00 am and 40 IU at 9:00 pm) over a period of 7 days, following completion of baseline measurements. Subjects are instructed on self-administration procedures. Drug administration commences on the evening of the day of the clinical and medical interview and ceases on a morning one-week later, after 14 doses have been administered. Subjects are randomized to oxytocin-receiving or placebo-receiving groups, and the groups are stratified according to gender, age, and drinking behavior. Subjects are contacted by telephone daily to confirm medication compliance and determine adverse events.
Subjects returning to the BMRI on the afternoon of the final day of testing are evaluated. Bloods for plasma oxytocin and cortisol levels are collected before commencement. A urine toxicology test and alcohol breathalyzer test are also performed, to determine whether subjects have been alcohol-free and drug-free at the time of testing. Subjects are tested according to DASS-21, PANAS, 7-day TLFB, and AUQ, and neuropsychological evaluations e.g., according to CANTAB are performed. Changes in mood, drinking behavior and neuropsychology are evaluated for both groups by comparison with baseline evaluations. Changes in smoking behavior are evaluated by FTND testing and comparison with baseline evaluations. HR and BP records over the period and at cessation are also determined and compared to baseline levels before commencement of therapy. […]

[3] = dosing period and follow-up, than before therapy
[4] = intranasal 80 IU per day for 28 days

CC[C@H](C)[C@@H]1NC(=O)[C@H](Cc2ccc(O)cc2)NC(=O)[C@@H](N)CSSC[C@@H](C(=O)N2CCC[C@H]2C(=O)N[C@@H](CC(C)C)C(=O)NCC(N)=O)NC(=O)[C@H](CC(N)=O)NC(=O)[C@H](CCC(N)=O)NC1=O [oxytocin]
criteria for problem drinking ([1]; at 3-month or 6-month or 12-month follow-up): do not meet the criteria for problem drinking | heavy drinking days ([1]; dosing period and 3-, 6-, 12-month follow-up, than before therapy): fewer heavy drinking days | cognitive biases to alcohol-related cues ([1]; dosing period and follow-up): reduced cognitive biases | liver function, BMI, and heart function ([1]; dosing period and follow-up): gradually improved | reward driven motivation to consume alcohol ([1]; dosing period and follow-up): reduced reward driven motivation | abstinent days [1, 3]: more abstinent days | period of time between heavy drinking days [1, 3]: longer period of time between heavy drinking days | alcohol intake [1, 4]: reduced alcohol intake | short-term memory function and general mood [1, 4]: enhanced short-term memory function and general mood | impulsivity ([1]; intranasal 80 IU per day for 28 days, dependent and non-dependent drinkers): decreased impulsivity | sleep behavior ([1]; throughout the medication dosing period): improved sleep behavior | alcohol consumed ([2]; ad libitum drinking sessions): consume less alcohol | bias to alcohol-related cues [2]: lower bias | positive response to the alcohol primer [2]: lower levels of positive response | reward motivation for alcohol consumption [2]: reduced reward motivation | subjective craving for alcohol [2]: lower
